# Reference: publication PMC6591635, “Advancing the Therapeutic Potential of Indoleamides for Tuberculosis” (Antimicrobial Agents and Chemotherapy, 2019)
# Where “and” joins values, the source holds several entries; their conditions need not be identical. Identical values can stand only once. Like-named read-outs stand apart in the source and are kept apart here. Marks after values point to notes of the source that are not given here.
# Assays:
# M. tuberculosis H37Rv [1] = experiment: Field emission scanning electron microscopy of cell morphology (dimples per 100 bacilli); type: cell-based, Mycobacterium tuberculosis; conditions: 24 hours of treatment, FESEM; for Cell morphology (dimples per 100 cells, deformed bacilli): 10× MIC
# M. tuberculosis H37Rv [2] = experiment: animal or person; type: in vivo, Mycobacterium tuberculosis; conditions: for Lung CFU burden compared with untreated controls: 10 mg/kg, 4 weeks of treatment, P < 0.05; for ED50: Mycobacterium tuberculosis, H37RV, in Mus musculus, inhaled or nasal, 672 h, read-out: 50% effective dose (ED50)
# in vitro = conditions: mouse, plasma
# M. tuberculosis H37Rv [3] = conditions: M. tuberculosis; stated without method in this paper; cited from earlier work
# M. tuberculosis H37Rv [4] = type: in vivo, Mycobacterium tuberculosis
# [5] = Single dose pharmacokinetic study in mice (oral formulations, i.v.); type: in vivo, Swiss Webster mice; conditions: mouse
# Procedure: To enhance oral bioavailability, we developed a novel formulation for compound 2 in propylene glycol (PG):Tween 80 (4:1, vol/vol). We compared the bioavailability of this new formulation with a previously reported formulation using 0.5% (wt/vol) carboxymethyl cellulose (CMC) ([19]). For oral (p.o.) administration, compound 2 was prepared in either formulation at 1 mg/ml of homogeneous suspension to achieve a 10-mg/kg dose level. For intravenous (i.v.) injection, a 0.22-mg/ml solution of compound 2 in PG:Tween 80:5% glucose at 20:10:70 (vol/vol/vol) was used. Five-week-old male Swiss Webster mice were randomly assigned to time points (3 mice per arm per time point). Serial blood samples of approximately 30 μl were collected at 0.25, 0.5, 1, 2, 4, 8, and 24 h after a single p.o. dose; and at 0.083, 0.33, 1, 2, 4, 8, and 24 h after a single i.v. dose. Plasma was harvested and stored at −80°C until analysis. Plasma samples were analyzed for compound 2 using liquid chromatography-tandem mass spectrometry (LC-MS/MS), with a limit of quantification of 1.05 ng/ml. Estimation of pharmacokinetic parameters was conducted using noncompartmental analysis with WinNonlin software (Phoenix 6.3).
# M. tuberculosis H37Rv [6] = system: M. tuberculosis H37Rv; set-up: method as in PMID 27275668; conditions: 4 weeks of treatment, 0.5% (wt/vol) CMC formulation, previous study; cited from earlier work
# [7] = 50 mg/kg, 4 weeks of treatment, PG:Tween 80 formulation
# [8] = male, Swiss Webster, in vivo, po, 10 mg/kg
smiles,measurement,setting,value
Cc1cc(C)c2cc(C(=O)NC3CCCCCCC3)[nH]c2c1 [compound 1],"Cell morphology (unhealthy cells: dimples at poles and septum, wrinkled cell surface) versus untreated",M. tuberculosis H37Rv [1]; 1× and 10× MIC,significantly higher number of unhealthy cells
same,"Cell morphology (dimples per 100 cells, deformed bacilli)",M. tuberculosis H37Rv [1],higher rate of deformed bacilli than 1× MIC
C[C@@H]1[C@H]2C[C@@H](C[C@H]1NC(=O)c1cc3c(F)cc(F)cc3[nH]1)C2(C)C [compound 2],Lung CFU burden compared with untreated controls,M. tuberculosis H37Rv [2],significantly reduced the lung CFU burden
same,ED50,M. tuberculosis H37Rv [2],28.9 mg/kg
same,fraction unbound,in vitro,0.032
same,MIC,M. tuberculosis H37Rv [3],4 ng/mL
same,Lung CFU count lower than that of positive control ethambutol at 100 mg/kg,M. tuberculosis H37Rv [4]; [7],1.2 log
same,Mean lung CFU count lower than that of untreated controls,M. tuberculosis H37Rv [4]; [7],4.66 log
same,"Lung CFU counts, Week 2","M. tuberculosis H37Rv [4]; […], compound 2 in PG:Tween 80","3.40 (NA)^b^,^c"
same,"Lung CFU counts, Week 4","M. tuberculosis H37Rv [4]; […], compound 2 in PG:Tween 80",2.82 (0.34)^b
same,F (relative bioavailability),"[5]; 10 mg/kg p.o., PG:Tween 80 formulation (suspension)",96%
same,F,"[5]; Swiss Webster, in vivo",22%
same,F (relative bioavailability),"[5]; male, Swiss Webster, in vivo",22%
same,Time for which plasma concentration of free compound exceeded the MIC postdose,"[5]; male, Swiss Webster, in vivo",24 h
same,Increase in relative bioavailability compared with the CMC formulation,[5]; [8],74%
same,Tmax,[5]; [8],1.00 ± 0.00 h
same,Tmax,"[5]; male, Swiss Webster, in vivo, po, 10 mg/kg, Tmax",1.25 ± 1.06 h
same,Lung CFU counts higher than positive control ethambutol at 100 mg/kg,M. tuberculosis H37Rv [6],2.0 log
CC1(C)CCC(NC(=O)c2cc3c(Cl)cc(Cl)cc3[nH]2)CC1 [compound 3],Lung CFU burden compared with untreated controls,M. tuberculosis H37Rv [2],did not
same,ED50,M. tuberculosis H37Rv [2],43 mg/kg
same,"Lung CFU, D28",M. tuberculosis H37Rv [2]; in vivo,7.05±0.09 and 6.99±0.19 and 5.66±0.14 and 4.15±0.06 and 3.65±0.11
"CC[C@@H](CO)NCCN[C@@H](CC)CO [ethambutol, reference compound]","Lung CFU counts, Week 2","M. tuberculosis H37Rv [4]; […], compound 2 in PG:Tween 80",4.34 (0.25)^b
same,"Lung CFU counts, Week 4","M. tuberculosis H37Rv [4]; […], compound 2 in PG:Tween 80",5.60 (0.24)^b
same,"Lung CFU counts, Week 2",M. tuberculosis H37Rv [4]; in vivo,3.56 (0.26)^b
same,"Lung CFU counts, Week 4",M. tuberculosis H37Rv [4]; in vivo,4.02 (0.28)^b
"NNC(=O)c1ccncc1 [isoniazid, reference compound]","Cell morphology (dimples per 100 cells, deformed bacilli)",M. tuberculosis H37Rv [1],"more dimples per 100 cells than no treatment, but the difference did not reach statistical significance"
